Values of other authors, collected in patent US9375436B2, “Androgen treatment in females” (priority 2004, dated 2016).

System: older mice
Conditions: cited from earlier work

For `COC1=C(OC)C(=O)C(C/C=C(\C)CC/C=C(\C)CC/C=C(\C)CC/C=C(\C)CC/C=C(\C)CC/C=C(\C)CC/C=C(\C)CC/C=C(\C)CC/C=C(\C)CCC=C(C)C)=C(C)C1=O` [CoQ10, coenzyme Q10], which oocytes numbers is on record?
Its oocytes numbers is “increases oocytes numbers”.
